Test results as given in patent publication US10208056B2, “Condensed tricyclic compounds as protein kinase inhibitors” (FUNDACIÓN DEL SECTOR PÚBLICO ESTATAL CENTRO NACIONAL DE …, priority 2015, dated 2019).
Where two headings read alike, the source gives them in different places.

Key:
Assay type in all cases: cell-based
[1] = target: T1, intracellular CDK8 (Homo sapiens (Human), UniProt P49336); assay: Cellular CDK8 inhibition assay, western blot P-STAT1 (S727) in IFN-γ treated SW620 cells; settings: SW620, IFNγ treated, read-out: SW620 P-STAT1(S727) w IFNγ
[2] = system: MV4:11; assay: In vitro cell proliferation assay (CellTiter-Glo), MV4:11; settings: Homo sapiens, MV4-11, growth inhibition, read-out: GI50 MV4:11
[3] = target: T1, intracellular CDK8; assay: Endogenous phosphoSTAT1 inhibition in SW620 cells growing in 10% FBS; settings: read-out: SW620 P-STAT1(S727)
Method in brief: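 SW620 cells in 10% FBS treated 8 h with compound, then lysed and phospho-STAT1 measured relative to total STAT1.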

T1 sequence (P49336 whole entry): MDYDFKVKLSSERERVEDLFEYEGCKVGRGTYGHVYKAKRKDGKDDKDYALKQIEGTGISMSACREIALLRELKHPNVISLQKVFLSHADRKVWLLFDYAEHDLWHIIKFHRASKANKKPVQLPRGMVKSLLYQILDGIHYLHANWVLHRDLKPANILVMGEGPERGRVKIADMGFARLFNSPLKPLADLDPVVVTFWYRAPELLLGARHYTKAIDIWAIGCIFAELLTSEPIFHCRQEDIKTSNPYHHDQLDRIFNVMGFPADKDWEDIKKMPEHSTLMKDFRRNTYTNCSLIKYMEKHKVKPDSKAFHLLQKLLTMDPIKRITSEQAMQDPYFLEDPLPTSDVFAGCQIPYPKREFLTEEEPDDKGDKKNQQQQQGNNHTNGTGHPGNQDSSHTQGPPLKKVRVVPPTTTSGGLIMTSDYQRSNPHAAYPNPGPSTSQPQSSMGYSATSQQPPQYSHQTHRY
T1 sequence (P24863 whole entry partner): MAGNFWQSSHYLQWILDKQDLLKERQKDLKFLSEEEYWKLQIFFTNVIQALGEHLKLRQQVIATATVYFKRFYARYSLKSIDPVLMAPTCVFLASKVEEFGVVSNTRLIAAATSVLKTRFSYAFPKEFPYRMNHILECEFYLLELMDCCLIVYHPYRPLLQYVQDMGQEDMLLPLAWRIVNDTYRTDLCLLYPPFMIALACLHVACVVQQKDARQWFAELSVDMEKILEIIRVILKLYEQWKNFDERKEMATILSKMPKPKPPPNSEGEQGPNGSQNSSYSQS
T1 sequence (Q93074 whole entry partner): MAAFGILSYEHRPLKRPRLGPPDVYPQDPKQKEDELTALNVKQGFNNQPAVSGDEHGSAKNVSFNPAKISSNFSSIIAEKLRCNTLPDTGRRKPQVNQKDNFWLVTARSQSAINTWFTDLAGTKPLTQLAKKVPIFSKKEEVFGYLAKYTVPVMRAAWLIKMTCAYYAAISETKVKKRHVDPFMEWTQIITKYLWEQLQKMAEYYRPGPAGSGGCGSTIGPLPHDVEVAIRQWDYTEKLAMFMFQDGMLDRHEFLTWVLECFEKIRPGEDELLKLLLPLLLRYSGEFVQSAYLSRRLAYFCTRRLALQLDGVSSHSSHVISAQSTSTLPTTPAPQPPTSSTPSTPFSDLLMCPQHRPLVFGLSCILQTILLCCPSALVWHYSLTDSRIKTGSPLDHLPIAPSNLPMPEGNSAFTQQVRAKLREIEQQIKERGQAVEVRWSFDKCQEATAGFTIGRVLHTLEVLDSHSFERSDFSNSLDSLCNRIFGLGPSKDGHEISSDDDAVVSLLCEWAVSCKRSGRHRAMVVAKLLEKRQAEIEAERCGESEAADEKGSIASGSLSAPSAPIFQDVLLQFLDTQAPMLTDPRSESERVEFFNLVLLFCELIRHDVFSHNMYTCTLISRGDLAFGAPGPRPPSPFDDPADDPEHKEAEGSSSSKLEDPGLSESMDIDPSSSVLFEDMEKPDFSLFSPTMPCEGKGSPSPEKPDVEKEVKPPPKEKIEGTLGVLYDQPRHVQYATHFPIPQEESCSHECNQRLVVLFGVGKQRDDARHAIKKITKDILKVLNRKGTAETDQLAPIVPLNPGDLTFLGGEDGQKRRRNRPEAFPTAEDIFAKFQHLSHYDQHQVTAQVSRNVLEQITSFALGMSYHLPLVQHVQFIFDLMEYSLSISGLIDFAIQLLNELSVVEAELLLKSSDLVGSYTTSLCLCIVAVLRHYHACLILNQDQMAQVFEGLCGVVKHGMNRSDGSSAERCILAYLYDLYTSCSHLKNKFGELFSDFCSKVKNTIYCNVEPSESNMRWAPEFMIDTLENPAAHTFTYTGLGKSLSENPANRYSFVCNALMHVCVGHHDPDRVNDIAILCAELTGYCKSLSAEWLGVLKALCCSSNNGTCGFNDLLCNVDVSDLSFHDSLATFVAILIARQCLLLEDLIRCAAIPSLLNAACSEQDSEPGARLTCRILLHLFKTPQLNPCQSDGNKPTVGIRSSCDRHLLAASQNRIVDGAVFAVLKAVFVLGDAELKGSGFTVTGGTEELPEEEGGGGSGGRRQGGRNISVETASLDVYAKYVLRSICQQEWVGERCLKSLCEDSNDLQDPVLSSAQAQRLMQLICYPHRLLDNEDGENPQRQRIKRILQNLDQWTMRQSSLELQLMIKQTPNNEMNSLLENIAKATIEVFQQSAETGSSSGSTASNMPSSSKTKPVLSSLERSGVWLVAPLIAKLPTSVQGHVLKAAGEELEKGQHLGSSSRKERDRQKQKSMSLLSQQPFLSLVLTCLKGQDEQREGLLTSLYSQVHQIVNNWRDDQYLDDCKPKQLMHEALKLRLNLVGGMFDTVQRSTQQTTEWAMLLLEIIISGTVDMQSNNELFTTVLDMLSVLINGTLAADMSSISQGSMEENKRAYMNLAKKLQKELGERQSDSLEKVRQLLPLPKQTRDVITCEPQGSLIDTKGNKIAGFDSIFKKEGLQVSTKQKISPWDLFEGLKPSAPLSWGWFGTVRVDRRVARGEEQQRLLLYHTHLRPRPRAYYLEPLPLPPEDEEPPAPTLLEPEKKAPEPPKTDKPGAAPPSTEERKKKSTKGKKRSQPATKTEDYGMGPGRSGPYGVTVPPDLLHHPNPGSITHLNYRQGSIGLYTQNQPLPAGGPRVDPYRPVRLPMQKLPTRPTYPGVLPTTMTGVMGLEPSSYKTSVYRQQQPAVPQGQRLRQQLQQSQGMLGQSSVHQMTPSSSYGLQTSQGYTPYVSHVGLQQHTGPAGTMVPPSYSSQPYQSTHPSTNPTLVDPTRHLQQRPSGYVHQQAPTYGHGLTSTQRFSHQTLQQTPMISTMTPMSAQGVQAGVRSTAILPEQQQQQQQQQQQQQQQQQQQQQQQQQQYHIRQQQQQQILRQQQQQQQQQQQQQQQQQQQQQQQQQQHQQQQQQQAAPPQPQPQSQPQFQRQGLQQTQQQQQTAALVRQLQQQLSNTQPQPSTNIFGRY

NC(=O)c1cc2c([nH]1)-c1ccncc1O[C@H]2C1CCOCC1 (single isomer, unassigned) [Example 72]
EC50 ([1]; semiquantitative): < 500 nM
GI50 ([2]; semiquantitative): 1000 to 10000 nM

CCn1c(C(N)=O)cc2c1-c1ccncc1OC2(C)C [Example 43]
EC50 ([1]; quantitative): 0.064 nM
GI50 ([2]; quantitative): 115 nM
EC50 ([3]; quantitative): 1.5 nM

CC1(C)Oc2cnccc2-c2c1cc(C(N)=O)n2CCF [Example 52]
EC50 ([1]; semiquantitative): < 500 nM
GI50 ([2]; semiquantitative): < 1000 nM
EC50 ([3]; semiquantitative): < 500 nM

CCn1c(C(N)=O)c(-c2ccccc2OC)c2c1-c1ccncc1OC2(C)C [Example 68]
EC50 ([1]; semiquantitative): < 500 nM
GI50 ([2]; semiquantitative): < 1000 nM
EC50 ([3]; semiquantitative): < 500 nM
